The subject of the experiment is Ste2-like fungal mating GPCRs expressed in S. cerevisiae. Description: GPCR on-off activity and dose response assay (FUS1 promoter coRFP fluorescent reporter, strain JTy014, synthetic peptide ligand). Format: cell-based, Ascomycete fungi (expressed in S. cerevisiae). Also on record: EC50: unit: log10 M. To be noted: for Hill Slope: Hill slope of 4-parameter fit; for Bttm: bottom of 4-parameter fit of the fluorescence dose response curve (basal activation); for Fold Change: fold-change activation from Top and Bttm of the fit; for EC50: peptide/GPCR pair, synthetic cognate peptide, fluorescence read-out, 4-parameter fit of dose response curves (FIG. 6), values given as negative (log) numbers; for Span: span of 4-parameter fit of the fluorescence dose response curve; for Top: top of 4-parameter fit of the fluorescence dose response curve (maximal activation). As for the experimental part:
GPCR on-off activity and dose response assay. GPCR activity and response to increasing dosage of synthetic peptide ligand was measured in strain JTy014 using the genomically integrated FUS1-promoter controlled coRFP as a fluorescent reporter. JTy014 strains carrying the appropriate GPCR expression plasmid were assayed in 96-well microtiter plates using 200 μl total volume, cultured at 30° C. and 800 RPM. Cells were seeded at an A600 of 0.3 (Note: all herein reported cell density values are based on A600 measurements in 96-well plates of a 200 μl volume of cultures with a path length of ˜0.3 cm performed in an Infinite M200 plate reader from Tecan) in SC media lacking uracil (selective component). All measurements were performed in triplicates. RFP fluorescence (excitation: 588 nm, emission: 620 nm) and culture turbidity (A600) were measured after 8 hours using an Infinite M200 plate reader (Tecan). Since the optical density values were outside the linear range of the photodetector, all optical density values were first corrected using the following formula to give true optical density values: […]
where Ameas is the measured optical density, Asat is the saturation value of the photodetector and k is the true optical density at which the detector reaches half saturation of the measured optical density^36. Dose-response was measured at different concentrations (11 five-fold dilutions in H2O starting at 40 μM peptide, H2O was used as “no peptide” control) of the appropriate synthetic peptide ligand. All fluorescence values were normalized by the A600, and plotted against the log(10)-converted peptide concentrations. Data were fit to a four-parameter non-linear regression model using Prism (GraphPad) in order to extract GPCR-specific values for basal activation, maximal activation, EC50 and the Hill coefficient. Fold-activation was calculated for each GPCR as the maximum A600-normalized fluorescence of peptide-treated cells divided by the A600 normalized fluorescence value of water-treated cells.

pEC50: −log10 of the molar value. Read-outs that look alike come from different tables or passages of the source. Ends that are not written are not given here. Peptide text beside a SMILES is read from it.

On to H-NWHWLRLDPGQPLY-OH [Sca], for which the “Hill Slope” value is on record as 0.7, the Bttm came out at 24.3, the “Fold Change” value amounted to 6.4 and the EC50 was −8.1. The Span was determined as 131.1 and the Top was determined as 155.4.

With H-WSWITLRPGQPIF-OH [Kl], the “Hill Slope” value turned out to be 0.8, the Bttm was determined as 37.2, the “Fold Change” value turned out to be 6.0 and the EC50 was −7.3. The Span turned out to be 185.9 and the Top amounted to 223.1.

For H-KPHWTTYGYYEPQ-OH [Cp], the “Hill Slope” value is given as 0.8, the Bttm is 36.2, the “Fold Change” value is on record as 7.0 and the EC50 is given as −8.5. Besides, the Span was determined as 217.8 and the Top is on record as 254.0.

As for H-WHWVRLRKGQGLF-OH [Cg], the “Hill Slope” value is reported as 2.4, the Bttm is 30.5, the “Fold Change” value was found to be 7.0 and the EC50 is −5.9. The Span was 183.0 and the Top amounted to 213.6.

In the case of `NCCCC[C@H](NC(=O)[C@H](Cc1c[nH]c2ccccc12)NC(=O)[C@H](Cc1c[nH]c2ccccc12)NC(=O)[C@H](CS)NC(=O)[C@@H](N)Cc1c[nH]c2ccccc12)C(=O)NCC(=O)N[C@@H](CCC(N)=O)C(=O)N1CCC[C@H]1C(=O)N[C@@H](CS)C(=O)N[C@@H](Cc1c[nH]c2ccccc12)C(=O)O` [Fg] (H-WCWWKGQPCW-OH), the “Hill Slope” value is 1.3, the Bttm is 29.2, the “Fold Change” value was determined as 8.0 and the EC50 is on record as −7.1. In addition, the Span is recorded as 203.0 and the Top turned out to be 232.2.

Regarding H-KWGWLRFFPGEPFV-OH [Cau], the “Hill Slope” value is 0.8, the Bttm is recorded as 50.6, the “Fold Change” value worked out at 6.7 and the EC50 is recorded as −8.1. The Span is reported as 286.3 and the Top is reported as 336.9.

Turning to `CC[C@H](C)[C@H](NC(=O)[C@H](Cc1c[nH]c2ccccc12)NC(=O)CN)C(=O)NCC(=O)N[C@@H](CCCNC(=N)N)C(=O)N[C@@H](CS)C(=O)NCC(=O)N[C@H](C(=O)N1CCC[C@H]1C(=O)NCC(=O)N[C@@H](CO)C(=O)N[C@@H](CO)C(=O)N[C@@H](CS)C(=O)O)C(C)C` [Bm] (H-GWIGRCGVPGSSC-OH; N-terminus and C-terminus assumed), the “Hill Slope” value is given as 1.2, the Bttm is reported as 30.3, the “Fold Change” value is recorded as 5.2 and the EC50 was −6.7. The Span stood at 128.4 and the Top came out at 158.8.

With H-KFKFRLTRYGWFSPN-OH [Ct], the “Hill Slope” value is recorded as 1.2, the Bttm was found to be 32.0, the “Fold Change” value stood at 5.2 and the EC50 is −8.2. The same compound yielded a Span of 134.6 and a Top of 166.7.

A word on the pEC50: it is the EC50 on a negative log10 scale, so that one unit is a factor of ten. As for “S. cerevisiae Ste2: natural S. cerevisiae mating GPCR; value is its sensitivity to its cognate peptide ligand”, the pEC50 (cognate synthetic peptide, fluorescence/A600 after 8 hours, four-parameter fit, read-out: EC50 (sensitivity of the GPCR for its cognate ligand)) was 8.90.

With FSWNYRLKWQPIS [Cn], the “Hill Slope” value is reported as 1.1, the Bttm was found to be 29.7, the “Fold Change” value came to 5.1 and the EC50 is −7.4. The compound also gave a Span of 122.5 and a Top of 152.2.
